Article PMC11137198 (Frontiers in Pharmacology, 2024)
“And” between values parts separate entries of the source, which are not always exact repeats. Equal entries are not always repeated. Where two headings read alike, the source gives them in different places. Marks after values point to notes of the source that are not given here.

Assays:
HAG [1] = test system: HAG; set-up: species or system human; conditions: binding constant within HAG, PBS
Source text: (§1) To calculate the K B values by means of UV absorption spectroscopy, the same Eq. 1 has been applied but using A instead of F.
Competing interactions on mixtures containing the drug and a metabolite in the presence of HAG confirmed the consistency of the determined binding constants.

HAG [2] = target: T1, HAG (Homo sapiens, UniProt P02763); assay type: physicochemical; conditions: HAG-bound; for weight of τ1 component / weight of τ2 component / τ2 / τ1: two-exponential fit; for τ2: long component; for τ1: short component; for λmax (fluorescence): 1:1 (10 μM)
T1 construct: α1-acid glycoprotein from human plasma (HAG) were purchased from Sigma-Aldrich; purchased Sigma-Aldrich; host or cells: human plasma
T1 sequence (P02763 19-201): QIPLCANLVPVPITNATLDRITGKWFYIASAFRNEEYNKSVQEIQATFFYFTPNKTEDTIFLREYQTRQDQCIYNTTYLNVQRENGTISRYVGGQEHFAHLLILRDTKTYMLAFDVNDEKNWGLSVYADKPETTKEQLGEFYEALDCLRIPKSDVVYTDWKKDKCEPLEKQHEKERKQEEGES
Experimental: (§2) Steady-state fluorescence spectra were recorded on an Edinburgh FS5 spectrofluorometer, provided with a monochromator in the wavelength range of 200–900 nm using an excitation wavelength of 340 nm at room temperature. Measurements on drug@protein complexes were performed in aerated PBS of 1:1 M ratio mixtures at 10 µM. The absorbance of the samples at the excitation wavelength was kept below 0.1. The fluorescence quantum yields were determined using anthracene in ethanol as reference ([Montalti et al., 2006]).
(§3) Time-resolved fluorescence measurements were performed with an EasyLife X system containing a sample compartment composed of an automated peltier cuvette holder to control the temperature at 24°C, a pulsed LED excitation source and a lifetime detector. The employed LED excitation source was 340 nm, with emission filter of WG370. The fluorescence lifetimes (τF) were obtained upon fitting the decay traces by a non-linear fitting/deconvolution procedure F(t) = Σa i ·exp(-t/τ i ) by means of a one- or two-exponential function, depending on the investigated system. All spectroscopic measurements were done in 10 × 10 mm^2 quartz cuvettes at room temperature.
The insets show the normalized spectra. For ligand@protein complexes, solutions were at 1:1 M ratio (10 μM).

[3] = set-up: method as in Tamarit et al., 2021; Tamarit et al., 2022; conditions: cyclohexane, ref Tamarit et al., 2021, 2022; cited from earlier work
HSA [4] = target: T2, HSA (Homo sapiens, UniProt P02768); assay: Binding constant (K B) by modified Scatchard analysis from UV absorption and fluorescence; conditions: binding constant within HSA, PBS
T2 construct: purchased Sigma-Aldrich
T2 sequence (P02768 25-609): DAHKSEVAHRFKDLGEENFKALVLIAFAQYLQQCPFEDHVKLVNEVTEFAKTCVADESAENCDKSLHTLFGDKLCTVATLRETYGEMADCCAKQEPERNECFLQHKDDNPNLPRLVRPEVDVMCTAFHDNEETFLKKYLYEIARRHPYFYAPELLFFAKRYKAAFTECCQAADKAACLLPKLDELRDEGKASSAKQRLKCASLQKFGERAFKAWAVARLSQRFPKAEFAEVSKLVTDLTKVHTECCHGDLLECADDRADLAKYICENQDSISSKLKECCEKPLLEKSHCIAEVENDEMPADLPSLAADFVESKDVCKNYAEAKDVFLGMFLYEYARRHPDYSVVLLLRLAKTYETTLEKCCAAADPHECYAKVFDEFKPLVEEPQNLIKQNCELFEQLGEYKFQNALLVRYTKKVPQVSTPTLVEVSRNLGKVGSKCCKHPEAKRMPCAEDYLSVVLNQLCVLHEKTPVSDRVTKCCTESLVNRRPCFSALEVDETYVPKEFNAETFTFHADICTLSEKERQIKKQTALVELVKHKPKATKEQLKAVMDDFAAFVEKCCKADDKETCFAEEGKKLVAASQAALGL
Experimental: as §1
An additional point to address is the strength of interaction of the drug and its two metabolites within HSA, since it is key for their transport to the specific targets and for their toxicological activity. […] To this end, a modified Scatchard analysis was performed (Supplementary Figures S6–S8).

HSA and HAG = assay: Competing interactions in an equimolar mixture of the two proteins (fluorescence); assay type: binding, human; conditions: fluorescence emission, λexc = 340 nm
HSA [5] = target: T2, HSA; conditions: HSA-bound, λexc = 340 nm, PBS; ref 36 (Tamarit et al., 2022); cited from earlier work
cellular milieu = test system: cellular milieu; set-up: method as in El Ouardi et al., 2023; conditions: UVA light, biological media; ref El Ouardi et al., 2023; cited from earlier work
HSA [6] = target: T2, HSA; assay: Steady-state and time-resolved fluorescence of ligand@HSA complexes; assay type: physicochemical; conditions: HSA-bound
Experimental: as §2, §3
FIGURE 2 (A) Fluorescence spectra for GFT-M2 in PBS (gray) and for GFT-M2@HSA (green). […] Measurements were performed at λexc = 340 nm in PBS; for ligand@HSA complexes, solutions were at 1:1 M ratio (10 μM).

[7] = Fluorescence of free ligand in organic solvents or PBS; assay type: physicochemical
Experimental: as §2, §3
An important point to discuss is the low fluorescence yield value of GFT-M2 within the protein cavities (ϕF ∼ 0.01) compared with that obtained in cyclohexane (ϕF ∼ 0.13). […] It is worth to mention that this is a dynamic process that lowers τF values ([Tamarit et al., 2021]; [Tamarit et al., 2022]). With the aim of investigating this possibility for GFT-M2, fluorescence measurements were performed in the non-polar solvent toluene in the presence of increasing amounts of Tyr and Trp (due to solubility requirements, the N-acetyl methyl ester amino acid derivatives, namely, NAc-TyrMe or NAc-TrpMe, were used). […] It is worth to mention that using either Tyr or Trp as quenchers, a new band with λmax ∼ 490 nm arose at high amino acid concentrations (insets of Figure 3); this is attributed to emission from phenolate-like species involving interaction between hydrogen-bonded GFT-M2 and Tyr (or Trp) in the ground state. However, and as discussed above, these species have not been observed in the supramolecular GFT-M2@HSA complex, since LE states predominate. Therefore, it would exist an additional deactivation route for ^1GFT-M2* within the protein, which would be strongly affected by the conformational arrangement of the metabolite in the binding sites (see the discussion on MD simulations).

[8] = λexc = 340 nm, PBS, 1:1 (10 μM)

| Compound | K B (HAG [1]) | ϕF (HAG [2]; λexc = 340 nm, PBS) | K B (HSA [4]) | weight of τ1 component (HAG [2]) [%] | weight of τ2 component (HAG [2]) [%] | τ2 (HAG [2]) [ns] | τ1 (HAG [2]) [ns] | λmax (fluorescence) (HAG [2]; λexc = 340 nm, PBS) [nm] | phototoxicity (cellular milieu) | also measured |
| --- | --- | --- | --- | --- | --- | --- | --- | --- | --- | --- |
| COc1cc2ncnc(Nc3ccc(F)c(Cl)c3)c2cc1OCCCN1CCOCC1 [GFT, gefitinib, reference compound] | 1.2 × 10^5 M^-1 and 1.2 ± 0.08 × 10^5 M^-1 | 0.03 |  |  |  |  |  |  |  | τF (HAG [2]; λexc = 340 nm, PBS, one-exponential fit, or mean lifetime where marked d): 0.8 ns; ϕF [3]: ~0.19 |
| COc1cc2ncnc(Nc3ccc(F)c(Cl)c3)c2cc1O [GFT-M1, O-desmorpholinopropyl gefitinib] | 9.1 ± 0.32 × 10^4 M^-1 | 0.04 | 1.2 ± 0.06 × 10^5 M^-1 | 28 | 72 | ~3.1 | ~0.5 | ~442 | highest phototoxicity | relative affinity in equimolar mixture of HSA and HAG (HSA and HAG): higher affinity to HSA; τF (HSA [5]): 2.5 ^b ns; ϕF (HSA [5]): 0.15 ^b |
| Oc1cc2ncnc(Nc3ccc(F)c(Cl)c3)c2cc1OCCCN1CCOCC1 [GFT-M2, O-desmethyl gefitinib] | 1.5 × 10^5 M^-1 and 1.5 ± 0.05 × 10^5 M^-1 | 0.03 | 1.8 ± 0.16 × 10^5 M^-1 | 35 | 65 | 4.1 | 0.7 | ~446 | much less phototoxic | weight of τ1 component (HSA [6]; two-exponential fit): 75%; weight of τ2 component (HSA [6]; two-exponential fit): 25%; τ2 (HSA [6]; two-exponential fit, long component): 4.9 ns; τ1 (HSA [6]; two-exponential fit, short component): 0.6 ns; λmax (fluorescence) (HSA [6]; [8]): ~388 nm; ϕF (HSA [6]; [8]): ~0.01; τF (HSA [6]; λexc = 340 nm, PBS, mean lifetime <τF> = a1τ1 + a2τ2): 1.0^d ns; shoulder detected in the fluorescence spectrum (HAG [2]; λexc = 340 nm, PBS, value between brackets): ~388 nm; ϕF ([7]; cyclohexane): ~0.13; fluorescence maximum ([7]; free in the bulk solution (PBS), λexc = 340 nm): ca. 440 nm; fluorescence maximum λmax ([7]; non-polar solvents): ca. 390 nm; λmax of new band at high amino acid concentrations ([7]; toluene, Tyr or Trp as quenchers, phenolate-like species): ~490 nm; fluorescence lifetime of the LE singlet state ([7]; toluene, with NAc-TyrMe or NAc-TrpMe at molar ratios 1:50 to 1:300): ca. 2.42 ns |
